Measured values from US6376707B1, “Crystal polymorphism of aminoethylphenoxyacetic acid derivative” (Kissei Pharmaceutical Co., Ltd., priority 1999, dated 2002).
Converted amounts (≈) assume the structure as drawn. Read-outs that look alike come from different tables or passages of the source.

Columns and labels:
Solubility in water = type: physicochemical; details: in water (37° C.)
Procedure: (§1) As examples of crystalline polymorphs other than the crystalline polymorph of the present invention, there are the crystalline polymorph (crystalline form γ) having strong diffraction peaks (diffraction angle: 2θ±0.1°) at 18.1, 19.7, 20.3, 21.2 and 22.4° and the crystalline polymorph (crystalline form […]) having strong diffraction peaks (diffraction angle: 2θ±0.1°) at 10.2, 13.2, 17.6, 19.8 and 20.6° in powder X-ray diffraction pattern. […] Thus, the crystalline polymorph of the present invention has an excellent low hygroscopicity and good storage. […] Thus, the crystalline polymorph of the present invention is favorable to oral administration and has a favorable efficiency in preparing liquid preparations such as injections.

[1] = Hygroscopicity (moisture absorption on standing under relative humidity); type: physicochemical
Procedure: as §1

β2-Adrenoceptor = target: T1, β2-Adrenoceptor (Rattus norvegicus, UniProt P10608); test: β2-Adrenoceptor stimulating effect: spontaneous contractions of isolated pregnant rat uterus (Magnus method); type: cell-based; details: isolated uterus of pregnant SD rats (day 21), cumulative addition every 5 minutes, 37° C.; read-out: 50% inhibitory drug concentration (EC50 value), uterine contractions
T1 construct: The uteri of pregnant SD rats (pregnancy day of 21) were isolated; from tissue; host or cells: isolated uterus (longitudinal myometrial preparations) of pregnant SD rats, day 21
Procedure: The uteri of pregnant SD rats (pregnancy day of 21) were isolated, and longitudinal preparations of approximately 15 mm in length and approximately 5 mm in width free from the basal plate were prepared. The experiment was conducted according to the Magnus method. The preparations with a tension of 1 g were exposed to Locke-Ringer solution maintained at 37° C. and gassed with a mixture of 95% of oxygen and 5% of carbon dioxide. Spontaneous contractions of the myometrium were isometrically measured with a force-displacement transducer and recorded by a rectigram. 2-[4-[2-[[(1S, 2R)-2-Hydroxy-2-(4-hydroxyphenyl)-1-methylethyl]amino]ethyl]-phenoxy]acetic acid was cumulatively added to the Magnus bath every 5 minutes. The drug efficacy was evaluated by comparing the sum of uterine contractions during 5 minutes after the addition of the drug with that during 5 minutes before the addition of the drug which was expressed as 100%.

[2] = Drug absorption on oral administration; type: in vivo; details: orally administered
Procedure: as §1

T1 sequence (P10608 whole entry): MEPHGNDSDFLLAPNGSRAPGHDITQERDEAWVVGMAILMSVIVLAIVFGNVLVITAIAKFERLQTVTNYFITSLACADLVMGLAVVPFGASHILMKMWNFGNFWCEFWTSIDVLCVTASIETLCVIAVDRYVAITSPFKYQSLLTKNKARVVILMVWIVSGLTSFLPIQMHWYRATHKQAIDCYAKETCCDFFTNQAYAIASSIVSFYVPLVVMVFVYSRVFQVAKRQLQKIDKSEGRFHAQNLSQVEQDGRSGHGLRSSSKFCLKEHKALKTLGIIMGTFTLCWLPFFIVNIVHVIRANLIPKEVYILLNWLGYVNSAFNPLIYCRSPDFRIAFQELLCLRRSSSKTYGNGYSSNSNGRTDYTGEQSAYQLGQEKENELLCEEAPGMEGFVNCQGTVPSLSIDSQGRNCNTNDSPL

C[C@H](NCCc1ccc(OCC(=O)O)cc1)[C@H](O)c1ccc(O)cc1 [crystalline form δ, 2-[4-[2-[[(1S,2R)-2-Hydroxy-2-(4-hydroxyphenyl)-1-methyl-ethyl]amino]ethyl]phenoxy]acetic Acid (Crystalline Form δ)]
solubility (Solubility in water): 1.8 mg/mL (≈ 5.21 mM)

C[C@H](NCCc1ccc(OCC(=O)O)cc1)[C@H](O)c1ccc(O)cc1 [crystalline form γ, 2-[4-[2-[[(1S,2R)-2-Hydroxy-2-(4-hydroxyphenyl)-1-methyl-ethyl]amino]ethyl]phenoxy]acetic Acid (Crystalline Form γ)]
moisture absorption (hygroscopicity) ([1]; conditions not given): easily absorb moisture to convert into their hydrates

C[C@H](NCCc1ccc(OCC(=O)O)cc1)[C@H](O)c1ccc(O)cc1 [2-[4-[2-[[(1S,2R)-2-hydroxy-2-(4-hydroxy-phenyl)-1-methylethyl]amino]ethyl]phenoxy]acetic acid]
EC50 (β2-Adrenoceptor): 31 nM

CC(NCCc1ccc(OCC(=O)O)cc1)C(O)c1ccc(O)cc1 [crystalline form α, 2-[4-[2-[[(1S,2R)-2-Hydroxy-2-(4-hydroxyphenyl)-1-methyl-ethyl]amino]ethyl]phenoxy]acetic Acid (Crystalline Form α)]
moisture absorption (hygroscopicity) ([1]; allowed to stand for 10 days under relative humidities of 51-93%): does not absorb moisture
solubility (Solubility in water; read-out: solubility): 2.7 mg/mL (≈ 7.82 mM)
drug absorption [2]: excellent drug absorption
